# Laboratory results published in US5506221A, “Contignasterol, and related 3-alpha hydroxy-6-alpha hydroxy-7-beta hydroxy-15-keto-14-beta steroids useful as anti-inflammatory and anti-thrombosis agents” (University of British Columbia, priority 1994, dated 1996).
# “Also recorded” adds a separate entry of the source.
# How the values were obtained:
# [1] = tested on: human basophils; assay: histamine release from human basophils/leukocytes challenged with anti-human IgE; format: cell-based
# Experimental: A major test to confirm the anti-allergic property of contignasterols is the histamine release from human basophils. […] We used […] human blood leukocytes from allergic (allergy to grass pollen) individuals and prepared leukocytes. The leukocytes were then challenged with anti-human IgE for the release of histamine. The leukocytes were either exposed to 50 μg/ml of contignasterol or saline alone (control). The amount of histamine released from the leukocytes was measured using radioenzymatic assay.
# [2] = tested on: platelets; assay: platelet aggregation in response to collagen; format: cell-based
# From the text: (§1) PAF is a local mediator of thrombosis. Similarly, collagen exposure of vessel walls leads to the formation of […] clot in the vessels. Therefore, prevention of the formation of blood clots has direct implication in the treatment of thrombosis and associated cardiovascular diseases.
# (§2) PAF and collagen were used at their maximal concentrations to which induced 100% aggregation of platelets.
# [3] = tested on: allergeninduced challenge; assay: relative potencies of isomers of contignasterol against allergen-induced challenge; conditions: for % Inhibition: allergen-induced challenge; for inhibition: concentration not given
# From the text: Table 4 illustrates the relative potencies of different isomers of contignasterol against allergeninduced challenge.
# [4] = tested on: platelets; assay: platelet aggregation in response to PAF; format: cell-based
# From the text: as §1, §2
# [5] = tested on: tracheal tissues; assay: ovalbumin (OA)-induced contraction of tracheal tissues from sensitized guinea pigs; format: cell-based
# From the text: We have used the contignasterol as defined in paragraph one of the Summary to block bronchoconstriction induced in guinea pigs. Guinea pigs were sensitized to ovalbumine (OA) that can serve as an antigen. The trachea from these animals after exposure to the antigen (OA) contracted in a similar manner as to in vivo situation.
# [6] = tested on: rat mast cells; conditions: induced by anti-IgE; cited from earlier work
structure (smiles),measurement,setting,value
"CC(C)C1CC(O)OC([C@@H](C)[C@H]2CC(=O)[C@@H]3[C@@H]4[C@@H](O)[C@H](O)[C@H]5[C@@H](O)[C@H](O)CC[C@]5(C)[C@H]4CC[C@]23C)C1 (stereo partly shown) [Compound 1, contignasterol]","inhibition of histamine release from human basophils, in words",[1]; basophils present in the blood,inhibits histamine release
same,Histamine Release (% of Total),"[1]; contignasterol 50 μg/ml, challenge with anti-IgE, control (no drug) 36.4, basal release 9.8",19.0 % of Total
same,activity at 5 µg/mL,"[2]; Platelet, contignasterol 5 μg/ml, collagen at maximal concentration, read-out: Aggregation (% of Control), Collagen",70%
same,activity at 30 µg/mL,"[2]; Platelet, contignasterol 30 μg/ml, collagen at maximal concentration, read-out: Aggregation (% of Control), Collagen",0%
same,activity at 50 µg/mL,"[2]; Platelet, contignasterol 50 μg/ml, collagen at maximal concentration, read-out: Aggregation (% of Control), Collagen",0%
same,"inhibition of platelet aggregation caused by collagen, in words",[2]; collagen,inhibited aggregation of platelets; also recorded: inhibits platelet aggregation
same,% Inhibition,[3]; 10 μM,43%
same,inhibition,[3],47%
same,"inhibition of platelet aggregation caused by PAF, in words",[4]; PAF,inhibited aggregation of platelets; also recorded: inhibits platelet aggregation
same,activity at 5 µg/mL,"[4]; Platelet, contignasterol 5 μg/ml, PAF at maximal concentration, read-out: Aggregation (% of Control), PAF",90%
same,activity at 10 µg/mL,"[4]; Platelet, contignasterol 10 μg/ml, PAF at maximal concentration, read-out: Aggregation (% of Control), PAF",56%
same,activity at 20 µg/mL,"[4]; Platelet, contignasterol 20 μg/ml, PAF at maximal concentration, read-out: Aggregation (% of Control), PAF",44%
same,activity at 30 µg/mL,"[4]; Platelet, contignasterol 30 μg/ml, PAF at maximal concentration, read-out: Aggregation (% of Control), PAF",28%
same,activity at 50 µg/mL,"[4]; Platelet, contignasterol 50 μg/ml, PAF at maximal concentration, read-out: Aggregation (% of Control), PAF",0%
same,Contraction (% of Maximal),"[5]; contignasterol 1 μg/ml, ovalbumine 0.001 μg/ml, control 6.6",0.00 % of Maximal
same,Contraction (% of Maximal),"[5]; contignasterol 1 μg/ml, ovalbumine 0.01 μg/ml, control 12",-7.7 % of Maximal
same,Contraction (% of Maximal),"[5]; contignasterol 1 μg/ml, ovalbumine 0.1 μg/ml, control 28.6",-8.5 % of Maximal
same,Contraction (% of Maximal),"[5]; contignasterol 1 μg/ml, ovalbumine 1 μg/ml, control 34.0",27.5 % of Maximal
same,Contraction (% of Maximal),"[5]; contignasterol 1 μg/ml, ovalbumine 10 μg/ml, control 46.0",30 % of Maximal
same,Contraction (% of Maximal),"[5]; contignasterol 1 μg/ml, ovalbumine 100 μg/ml, control 55.7",39 % of Maximal
same,Contraction (% of Maximal),"[5]; contignasterol 1 μg/ml, ovalbumine 300 μg/ml, control 56",39.7 % of Maximal
same,Contraction (% of Maximal),"[5]; contignasterol 10 μg/ml, ovalbumine 0.001 μg/ml, control 6.6",0.00 % of Maximal
same,Contraction (% of Maximal),"[5]; contignasterol 10 μg/ml, ovalbumine 0.01 μg/ml, control 12",-8.0 % of Maximal
same,Contraction (% of Maximal),"[5]; contignasterol 10 μg/ml, ovalbumine 0.1 μg/ml, control 28.6",-8.0 % of Maximal
same,Contraction (% of Maximal),"[5]; contignasterol 10 μg/ml, ovalbumine 1 μg/ml, control 34.0",6.0 % of Maximal
same,Contraction (% of Maximal),"[5]; contignasterol 10 μg/ml, ovalbumine 10 μg/ml, control 46.0",16.0 % of Maximal
same,Contraction (% of Maximal),"[5]; contignasterol 10 μg/ml, ovalbumine 100 μg/ml, control 55.7",16.6 % of Maximal
same,Contraction (% of Maximal),"[5]; contignasterol 10 μg/ml, ovalbumine 300 μg/ml, control 56",29.6 % of Maximal
same,Contraction (% of Maximal),"[5]; contignasterol 50 μg/ml, ovalbumine 0.001 μg/ml, control 6.6",0.00 % of Maximal
same,Contraction (% of Maximal),"[5]; contignasterol 50 μg/ml, ovalbumine 0.01 μg/ml, control 12",0.0 % of Maximal
same,Contraction (% of Maximal),"[5]; contignasterol 50 μg/ml, ovalbumine 0.1 μg/ml, control 28.6",0.0 % of Maximal
same,Contraction (% of Maximal),"[5]; contignasterol 50 μg/ml, ovalbumine 1 μg/ml, control 34.0",5.5 % of Maximal
same,Contraction (% of Maximal),"[5]; contignasterol 50 μg/ml, ovalbumine 10 μg/ml, control 46.0",11.1 % of Maximal
same,Contraction (% of Maximal),"[5]; contignasterol 50 μg/ml, ovalbumine 100 μg/ml, control 55.7",16.6 % of Maximal
same,Contraction (% of Maximal),"[5]; contignasterol 50 μg/ml, ovalbumine 300 μg/ml, control 56",22 % of Maximal
same,"effect on antigen-induced tracheal/airway smooth muscle contraction, in words","[5]; tissue pretreated, exposed to antigen (OA)",did not significantly contract; also recorded: inhibited airway smooth muscle contraction
"CC(C)C1CC(O)OC([C@@H](C)[C@H]2CC(=O)[C@H]3[C@@H]4[C@@H](O)[C@H](O)[C@H]5[C@@H](O)[C@H](O)CC[C@]5(C)[C@H]4CC[C@]23C)C1 (stereo partly shown) [Compound 2, 14-epicontignasterol]",% Inhibition,[3]; 10 μM,25%
same,inhibition,[3],25%
COC1CC(C(C)C)CC([C@@H](C)[C@H]2CC(=O)[C@@H]3[C@@H]4[C@@H](O)[C@H](O)[C@H]5[C@@H](O)[C@H](O)CC[C@]5(C)[C@H]4CC[C@]23C)O1 (stereo partly shown) [Compound 3],% Inhibition,[3]; 10 μM,12%
same,"change in potency on conversion of hemiacetal to methyl acetal, in words","[3]; 10 μM, methyl acetal (3) versus contignasterol (1)",significant decrease in the potency
same,inhibition,[3],12%
"CC(C)C[C@]1(O)C[C@@H](C)[C@H]2[C@@H]1C(=O)[C@@H]1[C@@H]3[C@@H](O)[C@H](O)[C@H]4C[C@H](O)CC[C@]4(C)[C@H]3CC[C@]21C [xestobergsterol A, 23S-16β, 23-cyclo-3α,6α,7β,23-tetrahydroxy-5α,14β-cholestan-15-one]","inhibition of histamine release, in words",[6],potent inhibitors of histamine release
"CC(C)C[C@]1(O)C[C@@H](C)[C@H]2[C@@H]1C(=O)[C@@H]1[C@@H]3[C@@H](O)[C@H](O)[C@H]4C[C@H](O)[C@@H](O)[C@@H](O)[C@]4(C)[C@H]3CC[C@]21C [xestobergsterol B, 23S-16β,23-cyclo-1β,2β,3α,6α,7β,23-hexahydroxy-5α,14β-cholestan-15-one]","inhibition of histamine release, in words",[6],potent inhibitors of histamine release
